± gives the expanded uncertainty stated by the source.
Experiments:
[1] = Crystal; DTA
[2] = Molar enthalpy of transition or fusion; conditions: Crystal; DSC

Structure (SMILES): COC(=O)N(OC)c1ccccc1COc1ccn(-c2ccc(Cl)cc2)n1 [Pyraclostrobin]
- Normal melting temperature [1]: 60.6 ± 0.6 °C
- Molar enthalpy of transition or fusion [2]: 7.42 ± 0.311 kcal/mol
